The text below walks through data of patent US20260191864A1, “Uses of Hydroimidazopyridopyrimidinone Derivatives for Managing Aneurysms or Other Vascular Conditions or Diseases” (Emory University, priority 2022, published 2026).

The structures appear in SMILES notation.

One assay concerns aortic aneurysms. The settings on record: mice; aortic diameter at day 14 vs baseline (FIGS. 1A-1C). An excerpt: It is contemplated that VSMC phenotypic modulation is responsible for foam cell formation during atherosclerosis.
Data represents percentage of maximal aortic dilation on day 14 of each animal. The recording and subsequent analysis were blinded to the assignment of the treatment regimen.
Images were quantified using ImageJ plus/color deconvolution plugin.

A further assay concerns vascular smooth muscle. Kind of assay: vascular smooth muscle differentiation in vivo (ACTA2 smooth muscle actin staining). The settings on record: mice, ACTA2 staining (FIG. 1D).

In the case of `Cc1ccccc1CN1C(=O)C2=C(CCN(Cc3ccccc3)C2)N2CCN=C12` [ONC201, 7-benzyl-4-(2-methylbenzyl)-2,4,6,7,8,9-hexahydroimidazo[1,2-a]pyrido[3,4-e]pyrimidin-5 (1H)-one], the “formation of aortic aneurysms” value in the assay on aortic aneurysms is recorded as “inhibits the formation of aortic aneurysms in mice”. In addition, in the assay with vascular smooth muscle, the “vascular smooth muscle differentiation” value is “induces vascular smooth muscle differentiation in vivo”.
